In ChEMBL document CHEMBL2424615, “Design, synthesis, and characterization of novel tetrahydropyran-based bacterial topoisomerase inhibitors with potent anti-gram-positive activity” (J Med Chem, 2013):

Key:
Staphylococcus aureus [1] = assay: Antibacterial activity against wild type Staphylococcus aureus ATCC 29213 assessed as growth inhibition by broth microdilution method; type: functional
Escherichia coli = assay: Antibacterial activity against wild type Escherichia coli ATCC 25922 assessed as growth inhibition by broth microdilution method; type: functional
hERG (KCNH2) = hERG (KCNH2) (Homo sapiens, UniProt Q12809); assay: Inhibition of human ERG expressed in CHO cells at 10 uM after 3 mins by patch clamp assay relative to control; type: cell-based; conditions: CHO cells that express human ERG
Streptococcus pneumoniae = assay: Antibacterial activity against wild type Streptococcus pneumoniae ATCC 49619 assessed as growth inhibition by broth microdilution method; type: functional
Topoisomerase IV = Topoisomerase IV (Staphylococcus aureus, UniProt P0C1S7+P0C1U9); assay: Inhibition of wild type Staphylococcus aureus ATCC 29213 topoisomerase-4 subunit 2GrlA/2GrlB assessed as pBR322 relaxation after 1 hr; type: protein-complex assay
[2] = Inhibition of wild type Escherichia coli ATCC 25922 DNA topoisomerase-4 subunit 2ParC/2ParE assessed as pBR322 relaxation after 1 hr
[3] = Inhibition of wild type Escherichia coli ATCC 25922 DNA gyrase subunit 2GyrA/2GyrB assessed as pBR322 supercoiling after 1 hr
Pseudomonas aeruginosa = assay: Antibacterial activity against wild type Pseudomonas aeruginosa ATCC 27853 assessed as growth inhibition by broth microdilution method; type: functional
DNA gyrase = DNA gyrase (Staphylococcus aureus, UniProt P0A0K8+P20831); assay: Inhibition of wild type Staphylococcus aureus DNA gyrase subunit 2GyrA/2GyrB assessed as pBR322 supercoiling after 1 hr; type: protein-complex assay
Staphylococcus aureus [4] = assay: Antibacterial activity against NXL-101-resistant Staphylococcus aureus A-234 harboring DNA gyrase subunit A D83N mutant assessed as growth inhibition by broth microdilution method; type: functional

COc1cc(F)c2nccc([C@@H](O)[C@H](O)[C@@H]3CC[C@@H](NCc4ccc5c(n4)NC(=O)CS5)CO3)c2c1
MIC (Staphylococcus aureus [1]): 0.03 µg/mL | MIC (Escherichia coli): 4 µg/mL | inhibition at 0.05 h, 10 µM (hERG (KCNH2)): 20% | MIC (Streptococcus pneumoniae): 0.25 µg/mL | IC50 (Topoisomerase IV): 8000 nM | IC50 [2]: 125 nM | IC50 [3]: 2000 nM | MIC (Pseudomonas aeruginosa): > 8 µg/mL | IC50 (DNA gyrase): 125 nM | MIC (Staphylococcus aureus [4]): 4 µg/mL

COc1ccc2nccc([C@@H](O)[C@H](O)[C@@H]3CC[C@@H](NCc4ccc5c(n4)NC(=O)CS5)CO3)c2c1
MIC (Staphylococcus aureus [1]): 0.25 µg/mL | MIC (Escherichia coli): 4 µg/mL | inhibition at 0.05 h, 10 µM (hERG (KCNH2)): 24% | MIC (Streptococcus pneumoniae): 0.25 µg/mL | IC50 (Topoisomerase IV): 8000 nM | IC50 [2]: 125 nM | IC50 [3]: 2000 nM | MIC (Pseudomonas aeruginosa): > 8 µg/mL | IC50 (DNA gyrase): 250 nM | MIC (Staphylococcus aureus [4]): > 8 µg/mL

COc1cnc2ccc(F)c([C@@H](O)[C@H](O)[C@@H]3CC[C@@H](NCc4cc5c(cn4)OCCS5)CO3)c2n1
MIC (Staphylococcus aureus [1]): ≤ 0.015 µg/mL | MIC (Escherichia coli): 8 µg/mL | inhibition at 0.05 h, 10 µM (hERG (KCNH2)): 33% | MIC (Streptococcus pneumoniae): 0.03 µg/mL | IC50 (Topoisomerase IV): 8000 nM | IC50 [2]: 125 nM | IC50 [3]: 8000 nM | MIC (Pseudomonas aeruginosa): > 8 µg/mL | IC50 (DNA gyrase): 30 nM | MIC (Staphylococcus aureus [4]): 2 µg/mL

COc1ccc2nccc(/C=C/[C@@H]3CC[C@@H](NCc4ccc5c(n4)NC(=O)CS5)CO3)c2n1
MIC (Staphylococcus aureus [1]): 0.125 µg/mL | MIC (Escherichia coli): 4 µg/mL | inhibition at 0.05 h, 10 µM (hERG (KCNH2)): 94% | MIC (Streptococcus pneumoniae): 1 µg/mL | IC50 (Topoisomerase IV): 2000 nM | IC50 [2]: 30 nM | IC50 [3]: 500 nM | MIC (Pseudomonas aeruginosa): > 8 µg/mL | IC50 (DNA gyrase): 125 nM | MIC (Staphylococcus aureus [4]): 4 µg/mL

COc1ccc2nccc(/C=C/[C@@H]3CC[C@@H](NCc4cc5c(cn4)OCCO5)CO3)c2n1
MIC (Staphylococcus aureus [1]): 0.25 µg/mL | MIC (Escherichia coli): > 8 µg/mL | inhibition at 0.05 h, 10 µM (hERG (KCNH2)): 88% | MIC (Streptococcus pneumoniae): 1 µg/mL | IC50 (Topoisomerase IV): > 8000 nM | IC50 [3]: > 8000 nM | MIC (Pseudomonas aeruginosa): > 8 µg/mL | IC50 (DNA gyrase): 125 nM | MIC (Staphylococcus aureus [4]): > 8 µg/mL

COc1ccc2nccc(CC[C@@H]3CC[C@@H](NCc4cc5c(cn4)OCCO5)CO3)c2n1
MIC (Staphylococcus aureus [1]): 0.06 µg/mL | MIC (Escherichia coli): 8 µg/mL | inhibition at 0.05 h, 10 µM (hERG (KCNH2)): 82% | MIC (Streptococcus pneumoniae): 0.5 µg/mL | IC50 (Topoisomerase IV): > 8000 nM | IC50 [2]: 125 nM | IC50 [3]: 8000 nM | MIC (Pseudomonas aeruginosa): > 8 µg/mL | IC50 (DNA gyrase): < 30 nM | MIC (Staphylococcus aureus [4]): 4 µg/mL

COc1ccc2nccc([C@@H](O)[C@H](O)[C@@H]3CC[C@@H](NCc4ccc5c(n4)NC(=O)CS5)CO3)c2n1
MIC (Staphylococcus aureus [1]): 0.03 µg/mL | MIC (Escherichia coli): 1 µg/mL | inhibition at 0.05 h, 10 µM (hERG (KCNH2)): 36% | MIC (Streptococcus pneumoniae): 0.06 µg/mL | IC50 (Topoisomerase IV): 500 nM | IC50 [2]: 125 nM | IC50 [3]: 500 nM | MIC (Pseudomonas aeruginosa): > 8 µg/mL | IC50 (DNA gyrase): < 30 nM | MIC (Staphylococcus aureus [4]): 0.5 µg/mL

COc1ccc2nccc([C@@H](O)[C@H](O)[C@@H]3CC[C@@H](NCc4cc5c(cn4)OCCO5)CO3)c2n1
MIC (Staphylococcus aureus [1]): 0.06 µg/mL | MIC (Escherichia coli): 8 µg/mL | inhibition at 0.05 h, 10 µM (hERG (KCNH2)): 27% | MIC (Streptococcus pneumoniae): 0.5 µg/mL | IC50 (Topoisomerase IV): 8000 nM | IC50 [2]: 125 nM | IC50 [3]: 8000 nM | MIC (Pseudomonas aeruginosa): > 8 µg/mL | IC50 (DNA gyrase): 30 nM | MIC (Staphylococcus aureus [4]): 4 µg/mL

COc1ccc2nccc([C@@H](O)[C@H](O)[C@H]3CC[C@H](NCc4ccc5c(n4)NC(=O)CS5)CO3)c2n1
MIC (Staphylococcus aureus [1]): 0.5 µg/mL | MIC (Escherichia coli): 4 µg/mL | inhibition at 0.05 h, 10 µM (hERG (KCNH2)): 45% | MIC (Streptococcus pneumoniae): 0.5 µg/mL | IC50 (Topoisomerase IV): > 8000 nM | IC50 [2]: 125 nM | IC50 [3]: 8000 nM | MIC (Pseudomonas aeruginosa): > 8 µg/mL | IC50 (DNA gyrase): 125 nM | MIC (Staphylococcus aureus [4]): > 8 µg/mL

COc1ccc2nccc([C@H](O)[C@@H](O)[C@@H]3CC[C@@H](NCc4ccc5c(n4)NC(=O)CS5)CO3)c2n1
MIC (Staphylococcus aureus [1]): 1 µg/mL | MIC (Escherichia coli): > 8 µg/mL | inhibition at 0.05 h, 10 µM (hERG (KCNH2)): 93% | MIC (Streptococcus pneumoniae): 1 µg/mL | IC50 (Topoisomerase IV): > 8000 nM | IC50 [2]: 125 nM | IC50 [3]: 8000 nM | MIC (Pseudomonas aeruginosa): > 8 µg/mL | IC50 (DNA gyrase): 500 nM | MIC (Staphylococcus aureus [4]): > 8 µg/mL

COc1ccc2nccc([C@H](O)[C@@H](O)[C@H]3CC[C@H](NCc4ccc5c(n4)NC(=O)CS5)CO3)c2n1
MIC (Staphylococcus aureus [1]): 0.03 µg/mL | MIC (Escherichia coli): 1 µg/mL | inhibition at 0.05 h, 10 µM (hERG (KCNH2)): 70% | MIC (Streptococcus pneumoniae): 0.03 µg/mL | IC50 (Topoisomerase IV): 8000 nM | IC50 [2]: 125 nM | IC50 [3]: 500 nM | MIC (Pseudomonas aeruginosa): > 8 µg/mL | IC50 (DNA gyrase): 30 nM | MIC (Staphylococcus aureus [4]): 0.5 µg/mL

COc1ccc2cccc([C@@H](O)[C@H](O)[C@@H]3CC[C@@H](NCc4ccc5c(n4)NC(=O)CS5)CO3)c2n1
MIC (Staphylococcus aureus [1]): 0.03 µg/mL | MIC (Escherichia coli): 2 µg/mL | inhibition at 0.05 h, 10 µM (hERG (KCNH2)): 72% | MIC (Streptococcus pneumoniae): 0.06 µg/mL | IC50 (Topoisomerase IV): 500 nM | IC50 [2]: 125 nM | IC50 [3]: 125 nM | MIC (Pseudomonas aeruginosa): > 8 µg/mL | IC50 (DNA gyrase): 30 nM | MIC (Staphylococcus aureus [4]): 0.25 µg/mL

COc1cnc2cccc([C@@H](O)[C@H](O)[C@@H]3CC[C@@H](NCc4ccc5c(n4)NC(=O)CS5)CO3)c2c1
MIC (Staphylococcus aureus [1]): 0.25 µg/mL | MIC (Escherichia coli): 8 µg/mL | inhibition at 0.05 h, 10 µM (hERG (KCNH2)): 17% | MIC (Streptococcus pneumoniae): 0.25 µg/mL | IC50 (Topoisomerase IV): 500 nM | IC50 [2]: 125 nM | IC50 [3]: 2000 nM | MIC (Pseudomonas aeruginosa): > 8 µg/mL | IC50 (DNA gyrase): 125 nM | MIC (Staphylococcus aureus [4]): > 8 µg/mL

COc1cnc2ccc(F)c([C@@H](O)[C@H](O)[C@@H]3CC[C@@H](NCc4ccc5c(n4)NC(=O)CS5)CO3)c2n1
MIC (Staphylococcus aureus [1]): 0.06 µg/mL | MIC (Escherichia coli): 4 µg/mL | inhibition at 0.05 h, 10 µM (hERG (KCNH2)): 44% | MIC (Streptococcus pneumoniae): 0.5 µg/mL | IC50 (Topoisomerase IV): 2000 nM | IC50 [2]: 125 nM | IC50 [3]: 500 nM | MIC (Pseudomonas aeruginosa): > 8 µg/mL | IC50 (DNA gyrase): 30 nM | MIC (Staphylococcus aureus [4]): 1 µg/mL

COc1ccc2nccc(OC[C@@H]3CC[C@@H](NCc4ccc5c(n4)NC(=O)CS5)CO3)c2n1
MIC (Staphylococcus aureus [1]): 0.5 µg/mL | MIC (Escherichia coli): 4 µg/mL | inhibition at 0.05 h, 10 µM (hERG (KCNH2)): 70% | MIC (Streptococcus pneumoniae): 0.25 µg/mL | IC50 (Topoisomerase IV): 8000 nM | IC50 [3]: 2000 nM | MIC (Pseudomonas aeruginosa): > 8 µg/mL | IC50 (DNA gyrase): 125 nM | MIC (Staphylococcus aureus [4]): 4 µg/mL

COc1ccc2nccc(OC[C@@H]3CC[C@@H](NCc4cc5c(cn4)OCCO5)CO3)c2n1
MIC (Staphylococcus aureus [1]): 2 µg/mL | MIC (Escherichia coli): > 8 µg/mL | inhibition at 0.05 h, 10 µM (hERG (KCNH2)): 19% | MIC (Streptococcus pneumoniae): 4 µg/mL | IC50 (Topoisomerase IV): > 8000 nM | IC50 [3]: > 8000 nM | MIC (Pseudomonas aeruginosa): > 8 µg/mL | IC50 (DNA gyrase): 500 nM | MIC (Staphylococcus aureus [4]): > 8 µg/mL

COc1ccc2nccc(NC(=O)[C@@H]3CC[C@@H](NCc4ccc5c(n4)NC(=O)CS5)CO3)c2n1
MIC (Staphylococcus aureus [1]): 0.25 µg/mL | MIC (Escherichia coli): > 8 µg/mL | inhibition at 0.05 h, 10 µM (hERG (KCNH2)): 99% | MIC (Streptococcus pneumoniae): 0.5 µg/mL | IC50 (Topoisomerase IV): 2000 nM | IC50 [3]: 500 nM | MIC (Pseudomonas aeruginosa): > 8 µg/mL | IC50 (DNA gyrase): 125 nM | MIC (Staphylococcus aureus [4]): > 8 µg/mL

COc1ccc2nccc(NC(=O)[C@@H]3CC[C@@H](NCc4cc5c(cn4)OCCO5)CO3)c2n1
MIC (Staphylococcus aureus [1]): 0.125 µg/mL | MIC (Escherichia coli): > 8 µg/mL | inhibition at 0.05 h, 10 µM (hERG (KCNH2)): 71% | MIC (Streptococcus pneumoniae): 0.25 µg/mL | IC50 (Topoisomerase IV): > 8000 nM | IC50 [3]: > 8000 nM | MIC (Pseudomonas aeruginosa): > 8 µg/mL | IC50 (DNA gyrase): 125 nM | MIC (Staphylococcus aureus [4]): > 8 µg/mL

COc1ccc2nccc(C(O)C[C@@H]3CC[C@@H](NCc4cc5c(cn4)OCCO5)CO3)c2n1 (mixture of isomers)
MIC (Staphylococcus aureus [1]): 0.03 µg/mL | MIC (Escherichia coli): > 8 µg/mL | inhibition at 0.05 h, 10 µM (hERG (KCNH2)): 66% | MIC (Streptococcus pneumoniae): 0.125 µg/mL | IC50 (Topoisomerase IV): > 8000 nM | IC50 [3]: > 8000 nM | MIC (Pseudomonas aeruginosa): > 8 µg/mL | IC50 (DNA gyrase): 125 nM | MIC (Staphylococcus aureus [4]): > 8 µg/mL
